Test results: patent US20230121086A1, “RORgT INHIBITOR, PREPARATION METHOD THEREOF AND USE THEREOF” (SUNSHINE LAKE PHARMA CO., LTD., priority 2020, published 2023)

These molecules were tested against T1, RORγt (Homo sapiens, UniProt P51449) (assay: Fluorescence resonance energy transfer (FRET) test, inhibitory activity of RORγt). Conditions: FRET, B-RORγt LBD / Biotin-SRC1; read-out: IC50.
T1 construct: […]
T1 sequence (P51449 269-508 limits assumed): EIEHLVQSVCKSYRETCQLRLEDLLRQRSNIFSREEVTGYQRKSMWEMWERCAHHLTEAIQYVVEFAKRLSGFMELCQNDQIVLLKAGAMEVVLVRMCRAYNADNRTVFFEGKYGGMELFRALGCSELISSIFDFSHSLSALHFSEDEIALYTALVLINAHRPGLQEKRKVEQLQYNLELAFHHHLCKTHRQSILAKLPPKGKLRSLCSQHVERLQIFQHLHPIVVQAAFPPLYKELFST
Type: biochemical

| Structure (SMILES) | IC50 [nM] |
| --- | --- |
| CCS(=O)(=O)c1ccc([C@H](CC#N)NC(=O)c2ccc(N3CC(Oc4ccc(C(F)(F)F)cc4)C[C@H]3COC(F)F)cc2)cc1 (single isomer, unassigned) [Example 74] | 70 |
| CCS(=O)(=O)c1ccc([C@H](CC#N)NC(=O)c2ccc(N3CC(Oc4ccc(C(F)(F)F)cc4)C[C@H]3COC(F)F)cc2)nc1 (stereo in doubt) [Example 49, N-((S)-2-cyano-1-(5-(ethylsulfonyl)pyridin-2-yl)ethyl)-4-((2S,4S)-2-((difluoromethoxy)methyl)-4-(4-(trifluoromethyl)phenoxy)pyrrolidin-1-yl)benzamide] | 28 |
| CCS(=O)(=O)c1ccc([C@H](CC#N)NC(=O)c2ccc(N3CC(Oc4ccc(C(F)(F)F)nc4)C[C@H]3COC(F)F)cc2)cc1 (stereo in doubt) [Example 57, N-((S)-2-cyano-1-(4-(ethylsulfonyl)phenyl)ethyl)-4-((2S,4S)-2-((difluoromethoxy)methyl)-4-((6-(trifluoromethyl)pyridine-3-yl)oxy)pyrrolidin-1-yl)benzamide] | 41 |
| CCS(=O)(=O)c1ccc([C@H](CC#N)NC(=O)c2ccc(N3CC(Oc4ccc(C(F)(F)F)cc4)C[C@H]3COC(F)F)cc2F)cc1 (stereo in doubt) [Example 59, N-((S)-2-cyano-1-(4-(ethylsulfonyl)phenyl)ethyl)-4-((2S,4S)-2-((difluoromethoxy)methyl)-4-(4-(trifluoromethyl)phenoxy)pyrrolidin-1-yl)-2-fluorobenzamide] | 47 |
| CCS(=O)(=O)c1ccc([C@H](CC#N)NC(=O)c2ccc(N3CC(Oc4ccc(C(F)(F)F)cc4)C[C@H]3COC(F)F)c(OC)c2)cc1 (stereo in doubt) [Example 60, N-((S)-2-cyano-1-(4-(ethylsulfonyl)phenyl)ethyl)-4-((2S,4S)-2-((difluoromethoxy)methyl)-4-(4-(trifluoromethyl)phenoxy)pyrrolidin-1-yl)-3-methoxybenzamide] | 81 |

Molecules with a lower IC50, results first:

| IC50 [nM] | Structure (SMILES) |
| --- | --- |
| 8 | CCS(=O)(=O)c1ccc([C@@H](CC#N)NC(=O)c2ccc(N3CC(Oc4ccc(C(F)(F)F)cc4)C[C@H]3COC(F)F)cc2)cc1 (stereo in doubt) [Example 48, N-((R)-2-cyano-1-(4-(ethylsulfonyl)phenyl)ethyl)-4-((2S,4S)-2-((difluoromethoxy)methyl)-4-(4-(trifluoromethyl)phenoxy)pyrrolidin-1-yl)benzamide] |
| 16 | CCS(=O)(=O)c1ccc([C@H](CC#N)NC(=O)c2cnc(N3CC(Oc4ccc(C(F)(F)F)cc4)C[C@H]3COC(F)F)c(F)c2)cc1 (stereo in doubt) [Example 50, N-((S)-2-cyano-1-(4-(ethylsulfonyl)phenyl)ethyl)-6-((2S,4S)-2-((difluoromethoxy)methyl)-4-(4-(trifluoromethyl)phenoxy)pyrrolidin-1-yl)-5-fluoronicotinamide] |
| 14 | CCS(=O)(=O)c1ccc([C@H](CCC#N)NC(=O)c2ccc(N3CC(Oc4ccc(C(F)(F)F)cc4)C[C@H]3COC(F)F)cc2)cc1 (stereo in doubt) [Example 51, N-((S)-3-cyano-1-(4-(ethylsulfonyl)phenyl)propyl)-4-((2S,4S)-2-((difluoromethoxy)methyl)-4-(4-(trifluoromethyl)phenoxy)pyrrolidin-1-yl)benzamide] |
| 7 | CCS(=O)(=O)c1ccc([C@H](CC#N)NC(=O)c2ccc(N3CC(Oc4ccc(OC)cc4)C[C@H]3COC(F)F)cc2)cc1 (stereo in doubt) [Example 63, N-((S)-2-cyano-1-(4-(ethylsulfonyl)phenyl)ethyl)-4-((2S,4S)-2-((difluoromethoxy)methyl)-4-(4-methoxyphenoxy)pyrrolidin-1-yl)benzamide] |
| 26 | CCS(=O)(=O)c1ccc([C@H](CC#N)NC(=O)c2ccc(N3CC(Oc4ccc(C(F)(F)F)cc4)C[C@H]3COC(F)(F)F)cc2)cc1 (stereo in doubt) [Example 70, N-((S)-2-cyano-1-(4-(ethylsulfonyl)phenyl)ethyl)-4-((2S,4S)-2-((trifluoromethoxy)methyl)-4-(4-(trifluoromethyl)phenoxy)pyrrolidin-1-yl)benzamide] |
